Like-named read-outs stand apart in the source and are kept apart here.
Experiments:
in vitro [1] = test: in vitro
Protocol: (§1) The reaction mixture, minus cofactors, was prepared as described below. The test article was added into the reaction mixture at a final concentration of 1 μM. […] An aliquot of the reaction mixture (without cofactor cocktail) was equilibrated in a shaking water bath at 37° C. for 3 minutes. The reaction was initiated by the addition of cofactor cocktail, and the mixture was incubated in a shaking water bath at 37° C. Aliquots (100 μL) were withdrawn at 0, 10, 20, 30, and 60 minutes. All samples were immediately combined with 400 uL of icecold 50/50 acetonitrile/H2O containing 0.1% formic acid and internal standard to terminate the reaction. The samples were then mixed and centrifuged to precipitate proteins. Calibration standards were prepared in matched matrix. All samples and standards were assayed by LC-MS/MS using electrospray ionization for both the dosed prodrug I-9 and the expected drug (PEA). Analytical conditions are outlined in Appendix 4-1. The test article concentration at each time point was compared to the test article concentration at time 0 to determine the percent remaining at each time point. Half-lives were calculated using GraphPad software, fitting to single-phase exponential decay equation.
(§2) Reaction mixture, minus cofactors, was prepared as described below. Test article was added into the reaction mixture at a final concentration of 1 μM. […] An aliquot of the reaction mixture (without cofactor cocktail) was equilibrated in a shaking water bath at 37° C. for 3 minutes. The reaction was initiated by the addition of cofactor cocktail, and the mixture was incubated in a shaking water bath at 37° C. Aliquots (100 μL) were withdrawn at 0, 10, 20, 30, and 60 minutes. Test article samples were immediately combined with 300 μL of ice-cold acetonitrile containing 1% formic acid. Control samples were immediately combined with 400 μL of ice-cold 50/50 acetonitrile (ACN)/dH2O containing 0.1% formic acid and internal standard to terminate the reaction. Samples were then mixed and centrifuged to precipitate proteins. Calibration standards were prepared in matched matrix. Samples and standards were assayed by LC-MS/MS using electrospray ionization for both the dosed prodrug and the expected drug (PEA). Analytical conditions are outlined in Appendix 8-1. Test article concentration at each time point was compared to test article concentration at time 0 to determine the percent remaining at each time point. Halflives were calculated using GraphPad software, fitting to a single-phase exponential decay equation.
as §2, with “for 5” for “for 3”, “minutes. Reaction” for “minutes. The reaction”, “and” for “and the”, “both” for “both the”, “Appendix 10-1.” for “Appendix 8-1.”
(§3) Reaction mixture, minus cofactors, was prepared as described below.

in vitro [2] = test: in vitro; remark: listed apart in the source
Protocol: as §1, §2
as §2, with “for 5” for “for 3”, “minutes. Reaction” for “minutes. The reaction”, “and” for “and the”, “both” for “both the”, “Appendix 10-1.” for “Appendix 8-1.”
as §3

in vitro [3] = details: s9
Protocol: Reaction mixture, minus cofactors, was prepared as described below. Test article was added into the reaction mixture at a final concentration of 1 μM. […] An aliquot of the reaction mixture (without cofactor cocktail) was equilibrated in a shaking water bath at 37° C. for 3 minutes. The reaction was initiated by the addition of cofactor cocktail (see below), and the mixture was then incubated in a shaking water bath at 37° C. Aliquots (100 μL) were withdrawn 0, 10, 20, 30 and 60 minutes. Test article samples were immediately combined with 300 μL of ice-cold acetonitrile containing 1% formic acid. Control samples were immediately combined with 400 μL of ice-cold 50/50 acetonitrile (ACN)/dH2O containing 0.1% formic acid and internal standard to terminate the reaction. Samples were then mixed and centrifuged to precipitate proteins. Calibration standards were prepared in matched matrix. Samples and standards were assayed by LC-MS/MS using electrospray ionization for both the dosed prodrug and the expected drug (PEA). Analytical conditions are outlined in Appendix 8-1. Test article concentration at each time point was compared to the test article concentration at time 0 to determine the percent remaining at each time point. Half-lives were calculated using GraphPad software, fitting to a single-phase exponential decay equation.
Reaction mixture, minus cofactors, was prepared as described below. Test article was added into the reaction mixture at a final concentration of 1 μM. […] An aliquot of the reaction mixture (without cofactor cocktail) was equilibrated in a shaking water bath at 37° C. for 5 minutes. Reaction was initiated by the addition of cofactor cocktail (see below), and mixture was then incubated in a shaking water bath at 37° C. Aliquots (100 μL) were withdrawn at 0, 10, 20, 30, and 60 minutes. Test article samples were immediately combined with 300 μL of ice-cold acetonitrile containing 1% formic acid. Control samples were immediately combined with 400 μL of ice-cold 50/50 acetonitrile (ACN)/dH2O containing 0.1% formic acid and internal standard to terminate the reaction. Samples were then mixed and centrifuged to precipitate proteins. Calibration standards were prepared in matched matrix. Samples and standards were assayed by LC-MS/MS using electrospray ionization for both dosed prodrug and expected drug (PEA). Analytical conditions are outlined in Appendix 10-1. Test article concentration at each time point was compared to test article concentration at time 0 to determine the percent remaining at each time point. Half-lives were calculated using GraphPad software, fitting to a single-phase exponential decay equation.
The reaction mixture, minus cofactors, was prepared as described below. Test article was added into the reaction mixture at a final concentration of 1 μM. […] An aliquot of the reaction mixture (without cofactor cocktail) was equilibrated in a shaking water bath at 37° C. for 3 minutes. Reaction was initiated by the addition of cofactor cocktail (see below), and the mixture was then incubated in a shaking water bath at 37° C. Aliquots (100 μL) were withdrawn at 0, 10, 20, 30, and 60 minutes. Test article samples were immediately combined with 300 μL of ice-cold acetonitrile containing 1% formic acid. Control samples were immediately combined with 400 μL of ice-cold 50/50 acetonitrile (ACN)/dH2O containing 0.1% formic acid and internal standard to terminate the reaction. Samples were then mixed and centrifuged to precipitate proteins. Calibration standards were prepared in matched matrix. Samples and standards were assayed by LC-MS/MS using electrospray ionization for both dosed prodrug and expected drug (PEA). Analytical conditions are outlined in Appendix 13-1. Test article concentration at each time point was compared to the test article concentration at time 0 to determine the percent remaining at each time point.

in vitro [4] = test: in vitro; remark: listed apart in the source
Protocol: as §2
as §2, with “for 5” for “for 3”, “minutes. Reaction” for “minutes. The reaction”, “and” for “and the”, “both” for “both the”, “Appendix 10-1.” for “Appendix 8-1.”
(§4) Reaction mixture, minus cofactors, was prepared as described below. Test article was added into the reaction mixture at a final concentration of 1 μM. […] An aliquot of the reaction mixture (without cofactor cocktail) was equilibrated in a shaking water bath at 37° C. for 3 minutes. Reaction was initiated by the addition of cofactor cocktail, and the mixture was incubated in a shaking water bath at 37° C. Aliquots (100 μL) were withdrawn at 0, 10, 20, 30, and 60 minutes. Test article samples were immediately combined with 300 μL of ice-cold acetonitrile containing 1% formic acid. Control samples were immediately combined with 400 μL of ice-cold 50/50 acetonitrile (ACN)/dH2O containing 0.1% formic acid and internal standard to terminate the reaction. Samples were then mixed and centrifuged to precipitate proteins. Calibration standards were prepared in matched matrix. Samples and standards were assayed by LC-MS/MS using electrospray ionization for both dosed prodrug and expected drug (PEA). Analytical conditions are outlined in Appendix 13-1. Test article concentration at each time point was compared to test article concentration at time 0 to determine the percent remaining at each time point. Halflives were calculated using GraphPad software, fitting to a single-phase exponential decay equation.

in vitro [5] = test: in vitro; remark: listed apart in the source
Protocol: as §2
as §4, with “for 5” for “for 3”, “and” for “and the”, “Appendix 10-1.” for “Appendix 13-1.”
as §4

[6] = Simulated intestinal fluid stability, SIF containing pancreatin; assay type: in vitro ADME; details: for % Remaining of Initial (n = 1): 1 μM; for Measured Concentration of Drug: test article dosed at 1 μM
Protocol: (§5) Studies were carried out in simulated intestinal fluid containing pancreatin. Simulated intestinal fluid was prepared by dissolving 6.8 g of monobasic potassium phosphate in 1.0 L of water. Pancreatin was then added to the solution and the pH was adjusted to 6.8. A DMSO stock was first prepared for the test articles. Aliquots of the DMSO solution were dosed into 300 μL of matrix, which had been pre-warmed to 37° C., at a final test article concentration of 1 μM. An individual tube was dosed for each time point. At each time point (0, 15, 30, 60, and 120 minutes), 900 μL of ice-cold acetonitrile containing 1.0% formic acid was added to an individual tube. Starting time for each tube was staggered such that all timepoints would finish at the same time. After the conclusion of the experiment, tubes were mixed and then centrifuged at 3,000 rpm for 10 minutes. Calibration standards were prepared in matched matrix. […] Analytical conditions are outlined in Appendix 11-1.
as §5, with “prepared for test articles.” for “prepared for the test articles.”, “Aliquots of DMSO solution” for “Aliquots of the DMSO solution”, “individual tube. The starting time for” for “individual tube. Starting time for”, “that all time points would finish” for “that all timepoints would finish”, “in Appendix 14-1.” for “in Appendix 11-1.”

[7] = Summary of half life data (Table A), matrix not stated; assay type: in vitro ADME
[8] = male, Sprague-Dawley, rat, in vivo, po
Protocol: PEA was also dosed intravenously at 1 mg/kg. Blood samples were collected up to 8 hours post-dose, and PEA and PEA-prodrug plasma concentrations were determined with a qualified LC-MS/MS method. Pharmacokinetic analysis was conducted by a non-compartmental model using Phoenix WinNonlin v.6.4 software.
The IV dosing solution was prepared fresh on the day of dosing at 0.5 mg/mL in a vehicle comprised of 10% solutol HS15, 10% n-methylpyrrolidone (NMP), 10% polyethylene glycol 400 (PEG400), and 70% water. For PO dosing, torpac capsules were loaded with an appropriate amount of PEA, PEA-prodrug, or normast powder. […] The prodrug dose in group 5 was the maximum amount of powder that would fit into a single capsule.
The pharmacokinetics of PEA and the PEA-prodrug were evaluated in fasted male Sprague-Dawley rats. Rats were housed one per cage. Each rat was fitted with a jugular vein cannula (JVC) for blood collection. Rats intended for IV dosing were fitted with an additional JVC for dosing. Each study group was dosing in triplicate. Rats were fasted for a minimum of twelve hours prior to dosing. Food was returned at four hours post dosing. Animals had free access to water throughout the study.
Blood samples (˜300 μL) were collected from the rats via a JVC and placed into chilled polypropylene tubes containing sodium heparin as an anticoagulant, and 30 μL of 0.5 M citric acid. Samples were maintained chilled throughout processing. Blood samples were centrifuged at 4° C. and 3,000 g for 5 minutes. Plasma (˜150 μL) was then transferred to a chilled, labeled polypropylene tube containing 15 μL of 10% formic acid, placed on dry ice, and stored in a freezer maintained at −60° C. to −80° C.
Pharmacokinetic parameters were determined with Phoenix WinNonlin (v6.4) software using a non-compartmental model. Maximum plasma concentrations (C0) after IV dosing were estimated by extrapolation of the first two time points back to t=0. […] Area under the time concentration curve (AUC) was calculated using the linear trapezoidal rule with calculation to the last quantifiable data point, and with extrapolation to infinity if applicable. […] Mean residence time, MRT, was calculated by dividing the area under the moment curve (AUMC) by the AUC. Clearance (CL) was calculated from dose/AUC. Steady-state volume of distribution (Vss) was calculated from CL*MRT (mean residence time). Bioavailability was determined by dividing the individual PO dose normalized AUClast values by the average IV AUClast value. Any samples below the limit of quantitation were treated as zero for pharmacokinetic data analysis.
Measured concentrations of PEA in plasma samples were corrected by subtracting the concentration of PEA measured in the pre-dose samples. […] Any corrected values that were negative are reported as not determined (ND).

[9] = system: patients with distal ulcerative colitis; details: cited from earlier work

## O=c1ccc2ccc(O)cc2o1 [Compound 7-HC, 7-hydroxycoumarin, reference compound]
In vitro [1]; both, human, s9, Clint, control compound
  microsomal CLint: 943 µL/min/mg
In vitro [1]; both, human, s9, Half-life (min)
  half-life: 13 min
In vitro [1]; both, human, s9, Half-life, control compound
  half-life: 7.3 min
In vitro [2]; male, Sprague-Dawley, rat, s9, Clint, control compound
  microsomal CLint: 20.1 µL/min/mg
In vitro [2]; male, Sprague-Dawley, rat, s9, Half-life, control compound
  half-life: 34 min

## O=c1ccc2ccc(O)cc2o1 [Compound 7-hydroxycourmann]
In vitro [3]; dog
  CLint: 0.512 ml/min/mg protein
  Half-life: 1.4 min
In vitro [3]; human
  CLint: 0.0472 ml/min/mg protein
  Half-life: 15 min
In vitro [3]; mouse
  CLint: 0.313 ml/min/mg protein
  Half-life: 2.2 min
In vitro [3]; rat
  CLint: 0.362 ml/min/mg protein
  Half-life: 1.9 min

## O=c1ccc2ccc(O)cc2o1 [Compound 7-hydroxycourmarin]
In vitro [1]
  CLin: 0.0522 ml/min/mg protein
In vitro [1]; human, s9
  CLint: 0.0698 ml/min/mg protein
In vitro [2]
  CLin: 0.0242 ml/min/mg protein
In vitro [2]; rat, s9
  CLint: 0.0320 ml/min/mg protein
In vitro [4]
  CLin: 0.138 ml/min/mg protein
In vitro [4]; mouse, s9
  CLint: 0.160 ml/min/mg protein
In vitro [5]
  CLin: 0.0770 ml/min/mg protein
In vitro [5]; dog, s9
  CLint: 0.0799 ml/min/mg protein

## CCCCCCCCCCCCCCCC(=O)NCCOC(=O)CCC(=O)OC[C@H](COC(=O)CCC)OC(=O)CCC [Compound I-14]
[6]; 0 min
  % Remaining of Initial (n = 1): 100%
  Measured Concentration of Drug: 0.19 µM
[6]; 15 min
  % Remaining of Initial (n = 1): 25%
  Measured Concentration of Drug: 0.047 µM
[6]; 30 min
  % Remaining of Initial (n = 1): <2.2%
  Measured Concentration of Drug: 0 µM
[6]; 60 min
  % Remaining of Initial (n = 1): <2.2%
  Measured Concentration of Drug: 0 µM
[6]; 120 min
  % Remaining of Initial (n = 1): <2.2%
  Measured Concentration of Drug: 0 µM
[6]; simulated intestinal fluid containing pancreatin, pH 6.8, 1 μM
  half-life at 1 μM: 7.6 min
[7]
  half-life: 7.5 min
[8]
  Bioavailability: 4.39%
  Dose-normalized AUC∞ (PEA): 4.81 kg·ng·h/mL/mg

## CCCCCCCCCCCCCCCC(=O)NCCOC(=O)CCC(=O)OC[C@@H](COC(=O)CCC)OC(=O)CCC [Compound I-15]
[6]; 0 min
  % Remaining of Initial (n = 1): 100%
  Measured Concentration of Drug: 0.18 µM
[6]; 15 min
  % Remaining of Initial (n = 1): <2.2%
  Measured Concentration of Drug: 0 µM
[6]; 30 min
  % Remaining of Initial (n = 1): <2.2%
  Measured Concentration of Drug: 0 µM
[6]; 60 min
  % Remaining of Initial (n = 1): <2.2%
  Measured Concentration of Drug: 0 µM
[6]; 120 min
  % Remaining of Initial (n = 1): <2.2%
  Measured Concentration of Drug: 0 µM
[7]
  half-life: < 1 min
[8]
  Bioavailability: 3.42%

## CCCC(=O)[O-].[Na+] [sodium butyrate]
[9]; after butyrate irrigation
  discharge of blood ceased: 9 of 10
  overall crypt proliferation: unchanged
[9]; before 0.086±0.019
  upper crypt-labeling index after butyrate irrigation: 0.032±0.003
[9]; before 2.4±0.3
  histological degree of inflammation after butyrate irrigation: 1.5±0.3
[9]; before 6.5±0.4
  endoscopic score after butyrate irrigation: 3.8±0.8
[9]; sodium butyrate 100 mmol/L enemas 2 weeks, 10 patients, before 4.7±0.5
  stool frequency after butyrate irrigation: 2.1±0.4 n/day
